Target: mouse CB2 (mCB2) (Mus musculus, UniProt P47936)
Format: binding

Chain of mouse CB2 (mCB2) (P47936 whole entry): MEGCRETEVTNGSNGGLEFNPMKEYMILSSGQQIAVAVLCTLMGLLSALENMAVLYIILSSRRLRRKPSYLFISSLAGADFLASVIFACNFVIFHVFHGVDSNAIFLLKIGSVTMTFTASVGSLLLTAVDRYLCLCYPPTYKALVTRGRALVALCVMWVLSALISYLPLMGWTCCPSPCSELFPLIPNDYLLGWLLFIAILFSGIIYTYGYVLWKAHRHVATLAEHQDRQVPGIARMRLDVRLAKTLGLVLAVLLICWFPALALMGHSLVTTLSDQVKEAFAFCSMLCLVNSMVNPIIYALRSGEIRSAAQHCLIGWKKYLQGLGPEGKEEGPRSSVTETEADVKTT

Compound: CCCCCCC(C)(C)c1cc(O)c2c(c1)oc(=O)c1ccc(OC)cc12 [AM1710, 3-(1′,1′-dimethylheptyl)-1-hydroxy-9-methoxy-6H-benzo[c]chromene-6-one]
- Ki: 0.017 µM
